# Several values for one entry are separate records, joined by “and”; a condition that tells them apart may be missing. Equal values may be shown once.
# How the values were obtained:
# [1] = system: 22RV1 androgen-resistant human prostate cancer xenograft; test: Growth delay and survival of 22RV1 xenograft, PR-104 and docetaxel; type: in vivo, CD-1 nude mice
# Experimental: End-point: After treatment, tumor size and body weights were measured regularly and mice were culled either when the average diameter of the tumor reached 15 mm (end-point), the tumor ulcerated or when the body weight change reached −15%. Experiment was ended and all remaining mice culled 120 days after treatment.
# Analysis: End-points will be expressed as TTE50, Median RTV^4 and plotted in Kaplan-Meier Plots and analysed by Log Rank P statistical test.
# [2] = system: SiHa human cervical cancer xenograft; test: Growth delay and survival of SiHa xenograft, PR-104 and docetaxel; type: in vivo, Rag-1^null mice
# Text: Analysis: End-points will be expressed as TTE50, Median RTV^4 and plotted in Kaplan-Meier Plots and analysed by Log Rank P statistical test. Weight loss nadir will be compared between schedules.
# [3] = 22RV1 xenograft, PR-104 652 mg/kg, docetaxel 73 mg/kg, q2w×2
# [4] = Rag-1 mice, PR-104 652 mg/kg, docetaxel 73 mg/kg, q2w×2
smiles,measurement,setting,value
"CC(=O)O[C@@]12CO[C@@H]1C[C@H](O)[C@@]1(C)C(=O)[C@H](O)C3=C(C)[C@@H](OC(=O)[C@H](O)[C@@H](NC(=O)OC(C)(C)C)c4ccccc4)C[C@@](O)([C@@H](OC(=O)c4ccccc4)[C@H]21)C3(C)C [Docetaxel, (2R,3S)-N-carboxy-3-phenylisoserine, N-tert-butyl ester, 13-ester with 5β-20-epoxy-1,2α,4,7β,10β,13α-hexahydroxytax-11-en-9-one 4-acetate 2-benzoate, trihydrate, reference compound]",activity against 22RV1 xenograft (in words),[1]; 22RV1 prostate xenograft model,moderately active
same,Weight Loss Nadir (%),"[1]; 22RV1 xenograft, CD-1 nude mice, PR-104 652 mg/kg, docetaxel 73 mg/kg, i.p., q2w×2, trihydrate",−3.5±0.8%
same,LTC (long term control),"[1]; 22RV1 xenograft, 120 day experiment",0
same,Median RTV^4,[1]; [3],20 days
same,TGD (relative gain in median RTV^4 versus control; TGI in text),[1]; [3],122%
same,TTE50,[1]; [3],24 days
same,median tumor growth delay,"[1]; 22RV1 xenograft, versus control",11 days
same,Gain TTE50 (improvement in median survival),"[1]; 22RV1 xenograft, versus control (9.5 days)",14.5 days
same,activity against SiHa xenograft (in words),[2]; Rag-1 mice,displayed activity
same,LTC (long term control),"[2]; Rag-1 mice, 120 day experiment",0
same,Weight Loss Nadir (%),"[2]; Rag-1 mice, PR-104 652 mg/kg, docetaxel 73 mg/kg, i.p., q2w×2, trihydrate",−7.0±0.8%
same,Median RTV^4,[2]; [4],44.5 days
same,TTE50 (median time for tumor end-point to occur),[2]; [4],54 days
same,TGD (relative gain in median RTV^4 versus control),"[2]; Rag-1 mice, PR-104 652 mg/kg, docetaxel 73 mg/kg, q2w×2, trihydrate",271% and 270.8%
same,Day of death,"[2]; Rag-1 mice, day of unscheduled death, trihydrate",44 and 66
same,improvement in tumor growth delay,"[2]; Rag-1 mice, versus control",32.5 days
same,Gain TTE50 (improvement in median survival),"[2]; Rag-1 mice, versus control (17 days)",37 days
same,Unscheduled deaths,"[2]; female Rag-1 mice, total dose PR-104 652 mg/kg, docetaxel 73 mg/kg, i.p., q2w×2",2
